Experimental data reported in US12673041B2, “4-aminobut-2-enamide derivatives and salt thereof” (TAIHO PHARMACEUTICAL CO., LTD., priority 2019, dated 2026).

Tests used:
[1] = biological target: T1, GMPPNP-bound KRAS G12C protein and cRAF RAS-binding domain (cRAF-RBD) (Homo sapiens, UniProt P01116, G12C); assay: Inhibitory activity on interaction between KRAS G12C and cRAF (Alpha technology); format: biochemical; details: GMPPNP-bound KRAS G12C incubated with compound at 25° C. for 1 hour, then cRAF-RBD, Alpha signal; read-out: IC50
T1 construct: made in house; host or cells: E. coli
Protocol: Interaction between recombinant K-Ras4B G12C mutant protein (amino acids 1-169, SEQ ID NO:2) and cRAF RAS-binding domain (cRAF-RBD, amino acids 50-132, Jena Biosciences GmbH) was measured using Alpha technology (PerkinElmer Inc.).
Recombinant KRAS G12C protein with an N-terminal His-tag was expressed in E. coli and purified by affinity chromatography. To prepare GTP-bound form and GDP-bound form of KRAS G12C protein, 50 μM KRAS G12C protein was incubated with 1 mM GMPPNP (Guanosine-5′-[(β,γ)-imido]triphosphate, Tetralithium salt) (Jena Bioscience GmbH) and 1 mM GDP, respectively, in a loading buffer (20 mM Tris-HCl (pH 7.5), 50 mM NaCl, 1 mM DTT and 2.5 mM EDTA) for 1 hour on ice. After the incubation, MgCl2 was added to a final concentration of 10 mM, followed by incubation at room temperature for 30 minutes. The mixture was allowed to pass through a NAP-5 column to remove free nucleotides and purified, and the resultant nucleotide-bound KRAS G12C protein was used for compound evaluation.
For the measurement of the inhibitory activity of compounds on interaction between KRAS G12C and cRAF-RBD, GMPPNP-bound KRAS G12C protein was incubated with various concentrations of compound in a reaction buffer (20 mM Tris-HCl (pH 7.5), 100 mM NaCl, 1 mM MgCl2, 1 mM TCEP, 0.1% Tween 20) at 25° C. for 1 hour. After the incubation, recombinant cRAF-RBD and Alpha detection reagents were added and incubated at room temperature for 1.5 hours for binding. Interaction 5 of KRAS G12C and cRAF-RBD was monitored by measuring Alpha signal. Inhibition % was calculated using the signal from the reaction without test compound (DMSO control) as 0% inhibition and the signal from the reaction using GDP-bound KRAS G12C in place of GMPPNP-bound KRAS G12C as 100% inhibition. IC50 values were calculated from dose titration curve using curve fitting by XLfit software (IDBS).

[2] = biological target: Gppcp-bound recombinant K-Ras4B G12C mutant protein (amino acids 1-169, C51S/C80L/C118S) (Homo sapiens, UniProt P01116, C118S/C51S/C80L/G12C); assay: KRASG12C binding assay (LC-MS compound binding rate); details: test compound final concentration 0.5 μM, 25° C., 1 hour
Protocol: As test compounds for the KRASG12C binding assay, the compounds obtained in the “Preparation of Compounds” section were used. Sample solutions each containing a test compound were prepared in the form of a 10 mM DMSO solution.
Gppcp-bound recombinant K-Ras4B G12C mutant protein (amino acids 1-169, C51S/C80L/C118S, SEQ ID NO:1) was diluted with a buffer (1×TBS, 0.1 mM TCEP, 0.25 mM MgCl2, 50 μM Gppcp) to prepare a 50 nM protein solution. K-Ras4B is the major splicing variant of K-Ras. Amino acid sequence of residues 1 to 150 including the compounds' binding region of K-Ras4B is exactly same as that of K-Ras4A, the other splicing variant (Oncotarget. 2016 Jul. 19; 7(29): 46717-46733). A sample solution containing 10 mM test compound was diluted ten-fold with DMSO to make a 1 mM sample solution, and then diluted twenty-fold with DMSO to make a 50 μM sample solution. 1 μL of a 50 μM sample solution was added to 100 μL of a 50 nM protein solution to adjust the final concentration of a test compound to be 0.5 μM in the mixture. The mixtures were stored in an incubator at 25° C. for 1 hour, and 10 μL of a 1×TBS solution containing 2% formic acid was added to stop the reaction, followed by LC-MS measurement. LC-MS measurement was performed using Xevo G2-S Q-Tof manufactured by Waters, and reverse-phase chromatography was performed with a desalting column. A mass spectrum of positive ions was obtained by electrospray. For a mass spectrum, a spectrum of polyvalent ions was collectively converted to a molecular weight by using OpenLynx software by the MaxEnt technique, and a compound binding rate was calculated from the ratio of the signal intensity of a peak that corresponds to the molecular weight of the protein to the signal intensity of a peak that corresponds to the molecular weight of the protein conjugated with the compound.
The binding assay of the test compounds was conducted at a final concentration of 0.5 μM. A binding rate of 80% or more is rated “A”, a binding rate of 60% or more and less than 80% is rated “B”, a binding rate of 40% or more and less than 60% is rated “C”, a binding rate of 20% or more and less than 40% is rated “D”, and a binding rate of less than 20% is rated “E”. N.D.=not determined. Binding rate % is the ratio of KRAS signal intensity at the molecular weight of one molecule adduct to the sum of all the KRAS signal intensity (unbound form and adducts) in mass spectrum.
Thus, binding rate 100% means that only the one molecule adduct was observed without any unbound KRAS.

SMILES | IC50 [1] | binding rate [2]
CO[C@H]1CC[C@H](NC/C=C/C(=O)Nc2ccc(C(=O)c3ccc4c(-c5c(Cl)cc6c(ncn6C)c5Cl)cccn34)cc2C#N)CC1 (single isomer, unassigned) [Example 63, (E)-N-(2-cyano-4-(8-(4,6-dichloro-1-methyl-1H-benzo[d]imidazol-5-yl)indolizine-3-carbonyl)phenyl)-4-(((1r,4r)-4-methoxycyclohexyl)amino)but-2-enamide] | 210 nM | A (A binding rate of 80% or more is rated “A”)
O=C(/C=C/CN[C@H]1CC[C@H](O)CC1)Nc1ccc(C(=O)Nc2cccc(Br)c2)cn1 [Comparative example 1, N-(3-bromophenyl)-6-((E)-4-(((1r,4r)-4-hydroxycyclohexyl)amino)but-2-enamido)nicotinamide, reference compound] | 20000 nM | E (a binding rate of less than 20% is rated “E”)
C=CC(=O)Nc1ccc(C(=O)Nc2cccc(-c3cc4nc(COC)n(C)c4cc3C(F)(F)F)c2)cc1C#N [Comparative example 2, reference compound] | 15000 nM | E (a binding rate of less than 20% is rated “E”)
CCc1nc2cc(-c3cccc(NC(=O)c4ccc(NC(=O)/C=C/CN(C)C(C)(C)C)c(C#N)c4)c3)c(C(F)(F)F)cc2n1C [Example 2, (E)-4-(4-(tert-butyl(methyl)amino)but-2-enamido)-3-cyano-N-(3-(2-ethyl-1-methyl-6-(trifluoromethyl)-1H-benzo[d]imidazol-5-yl)phenyl)benzamide] | 880 nM | D (a binding rate of 20% or more and less than 40% is rated “D”)
CCc1nc2cc(-c3cccc4c3CCN4C(=O)c3ccc(NC(=O)/C=C/CN[C@H]4CC[C@H](OC)CC4)c(C#N)c3)c(C(F)(F)F)cc2n1C [Example 10, (E)-N-(2-cyano-4-(4-(2-ethyl-1-methyl-6-(trifluoromethyl)-1H-benzo[d]imidazol-5-yl)indoline-1-carbonyl)phenyl)-4-(((1r,4r)-4-methoxycyclohexyl)amino)but-2-enamide] | 190 nM | A (A binding rate of 80% or more is rated “A”)
COc1ccc(Cl)c(-c2cccc(NC(=O)c3ccc(NC(=O)/C=C/CNC4CCN(S(C)(=O)=O)CC4)c(C#N)c3)c2)c1OC [Example 11, (E)-N-(6′-chloro-2′,3′-dimethoxy-[1,1′-biphenyl]-3-yl)-3-cyano-4-(4-((1-(methylsulfonyl)piperidin-4-yl)amino)but-2-enamido)benzamide] | 630 nM | B (a binding rate of 60% or more and less than 80% is rated “B”)
CCN(CC)[C@H]1CC[C@H](NC/C=C/C(=O)Nc2ccc(C(=O)Nc3cccc(-c4c(Cl)ccc5c4cnn5C)c3)cc2C#N)CC1 [Example 12, N-(3-(5-chloro-1-methyl-1H-indazol-4-yl)phenyl)-3-cyano-4-((E)-4-(((1r,4r)-4-(diethylamino)cyclohexyl)amino)but-2-enamido)benzamide] | 270 nM | B (a binding rate of 60% or more and less than 80% is rated “B”)
CCN(CC)[C@H]1CC[C@H](NC/C=C/C(=O)Nc2ccc(C(=O)Nc3cccc(-c4cc5nc(C)n(C)c5cc4Cl)c3)cc2F)CC1 [Example 13, N-(3-(6-chloro-1,2-dimethyl-1H-benzo[d]imidazol-5-yl)phenyl)-4-((E)-4-(((1r,4r)-4-(diethylamino)cyclohexyl)amino)but-2-enamido)-3-fluorobenzamide] | 410 nM | B (a binding rate of 60% or more and less than 80% is rated “B”)
O=C(/C=C/CN[C@H]1CC[C@H](O)CC1)Nc1ccc(C(=O)Nc2cccc(-c3cc4nc[nH]c4cc3Cl)c2)cn1 [Example 14, N-(3-(6-chloro-1H-benzo[d]imidazol-5-yl)phenyl)-6-((E)-4-(((1r,4r)-4-hydroxycyclohexyl)amino)but-2-enamido)nicotinamide] | 830 nM | D (a binding rate of 20% or more and less than 40% is rated “D”)
CCc1nc2c(Cl)c(-c3cccc(NC(=O)c4ccc(NC(=O)/C=C/CN[C@H]5CC[C@H](OC)CC5)c(C#N)c4)c3)c(C(F)(F)F)cc2n1C [Example 15, N-(3-(4-chloro-2-ethyl-1-methyl-6-(trifluoromethyl)-1H-benzo[d]imidazol-5-yl)phenyl)-3-cyano-4-((E)-4-(((1r,4r)-4-methoxycyclohexyl)amino)but-2-enamido)benzamide] | 200 nM | A (A binding rate of 80% or more is rated “A”)
CO[C@H]1CC[C@H](NC/C=C/C(=O)Nc2ccc(C(=O)Nc3cccc(-c4cc5ncsc5cc4C)c3)cc2C#N)CC1 [Example 16, 3-cyano-4-((E)-4-(((1r,4r)-4-methoxycyclohexyl)amino)but-2-enamido)-N-(3-(6-methylbenzo[d]thiazol-5-yl)phenyl)benzamide] | 700 nM | C (a binding rate of 40% or more and less than 60% is rated “C”)
CS(=O)(=O)N1CCC(NC/C=C/C(=O)Nc2ccc(C(=O)Nc3cccc(-c4cc5nccn5cc4Cl)c3)cc2C#N)CC1 [Example 17, (E)-N-(3-(6-chloroimidazo[1,2-a]pyridin-7-yl)phenyl)-3-cyano-4-(4-((1-(methylsulfonyl)piperidin-4-yl)amino)but-2-enamido)benzamide] | 75 nM | B (a binding rate of 60% or more and less than 80% is rated “B”)
CO[C@H]1CC[C@H](NC/C=C/C(=O)Nc2ccc(C(=O)Nc3cc(F)c(F)c(-c4cc5ncn(C)c5cc4C)c3)cc2C#N)CC1 [Example 18, 3-cyano-N-(3-(1,6-dimethyl-1H-benzo[d]imidazol-5-yl)-4,5-difluorophenyl)-4-((E)-4-(((1r,4r)-4-methoxycyclohexyl)amino)but-2-enamido)benzamide] | 140 nM | A (A binding rate of 80% or more is rated “A”)
CCN(CC)[C@H]1CC[C@H](NC/C=C/C(=O)Nc2ccc(C(=O)Nc3cccc(-c4cc5ncn(C)c5cc4Cl)c3)cc2C#N)CC1 [Example 19, N-(3-(6-chloro-1-methyl-1H-benzo[d]imidazol-5-yl)phenyl)-3-cyano-4-((E)-4-(((1r,4r)-4-(diethylamino)cyclohexyl)amino)but-2-enamido)benzamide] | 34 nM | A (A binding rate of 80% or more is rated “A”)
Cc1nc2c(Cl)c(-c3cccc(NC(=O)c4ccc(NC(=O)/C=C/CNC5CCC(F)(F)CC5)c(C#N)c4)c3)c(Cl)cc2n1C [Example 20, (E)-3-cyano-N-(3-(4,6-dichloro-1,2-dimethyl-1H-benzo[d]imidazol-5-yl)phenyl)-4-(4-((4,4-difluorocyclohexyl)amino)but-2-enamido)benzamide] | 150 nM | A (A binding rate of 80% or more is rated “A”)
